# Data: US10730902B2, “1,1 ′-sulfanediyl-di-beta-D-galactopyranosides as inhibitors of galectins” (GALECTO BIOTECH AB, priority 2015, dated 2020)
# Experiments:
# galectins = conditions: all galectins; cited from earlier work
# galectin-1 = galectin-1 (Homo sapiens (Human), UniProt P09382); assay: Fluorescence anisotropy assay, galectin-1 affinity; type: binding; conditions: read-out: Gal-1 Kd
# Experimental: The affinity of Example 1-5 for galectins were determined by a fluorescence anisotropy assay where the compound was used as an inhibitor of the interaction between galectin and a fluorescein tagged saccharide probe as described Sörme, P., Kahl-Knutsson, B., Huflejt, M., Nilsson, U. J., and Leffler H. (2004) Fluorescence polarization as an analytical tool to evaluate galectin-ligand interactions. Anal. Biochem. 334: 36-47, (Sörme et al., 2004) and Monovalent interactions of Galectin-1 By Salomonsson, Emma; Larumbe, Amaia; Tejler, Johan; Tullberg, Erik; Rydberg, Hanna; Sundin, Anders; Khabut, Areej; Frejd, Torbjorn; Lobsanov, Yuri D.; Rini, James M.; et al, From Biochemistry (2010), 49(44), 9518-9532, (Salomonsson et al., 2010). […] 100 nM albumin was included as a carrier to prevent protein loss at such low concentration of galectin.
# Solubility = type: physicochemical
# galectin-3 = galectin-3 (Homo sapiens (Human), UniProt P17931); assay: Fluorescence anisotropy assay, galectin-3 affinity; type: binding; conditions: read-out: Gal-3 Kd
# galectin-3, sequence (P17931 whole entry): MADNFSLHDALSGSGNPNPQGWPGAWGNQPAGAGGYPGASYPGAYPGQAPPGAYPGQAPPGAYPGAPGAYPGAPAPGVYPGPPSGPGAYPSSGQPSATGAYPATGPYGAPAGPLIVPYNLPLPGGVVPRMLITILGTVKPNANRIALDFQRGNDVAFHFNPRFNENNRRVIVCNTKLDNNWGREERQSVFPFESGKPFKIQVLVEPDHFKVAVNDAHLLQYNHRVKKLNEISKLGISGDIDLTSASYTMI
# Experimental: Anal. Biochem. 334: 36-47, (Sörme et al., 2004) and Monovalent interactions of Galectin-1 By Salomonsson, Emma; Larumbe, Amaia; Tejler, Johan; Tullberg, Erik; Rydberg, Hanna; Sundin, Anders; Khabut, Areej; Frejd, Torbjorn; Lobsanov, Yuri D.; Rini, James M.; et al, From Biochemistry (2010), 49(44), 9518-9532, (Salomonsson et al., 2010). […] 100 nM albumin was included as a carrier to prevent protein loss at such low concentration of galectin.
# [1] = system: rabbit model of proliferative Vitreoretinopathy (PVR); assay: Study of ocular fibrosis in rabbits (retinal detachment, PVR model); type: in vivo, New Zealand white rabbits; conditions: for reduction of size and number of subretinal glial scars and number of dividing cells: in HEC formulation, rabbit retinal detachment; for number of subretinal scars per mm of retina / scar length per mm of retina: seven days after retinal detachment; for number of subretinal scars per mm of retina / scar length per mm of retina / Ki67 labeled Muller cells per mm of retina: 50 μL IVT in HEC gel, GB1A 0.05 mg/mL, GB1B 1.5 mg/mL; for number of subretinal scars per mm of retina: HEC control 1.26; for scar length per mm of retina: HEC control 175; for Ki67 labeled Muller cells per mm of retina: three days after retinal detachment, HEC control 9.57
# Experimental: 30 New Zealand white rabbits were housed in metal cages that conformed to standards set forth in the Animal Welfare Act and the Guide for the Care and Use of Laboratory Animals. Space recommendations for animals were in accordance with PHS policy and the AWA.
# The vehicle gel formulation was 1.65% (w/v) HEC in NaCl. The vehicle formulation was prepared by adding the appropriate amount of HEC to 75% of the required volume of 0.9% NaCl. The resulting formulation was stirred for 20 to 25 minutes after which it was QS'ed (adjusted) to the final volume with 0.9% NaCl and stirred for an additional 2 to 3 hours at room temperature. The gel formulation was then filtered with a 0.2 μm cellulose filter.
# The test item formulations were prepared by adding the appropriate amount of GB1A or GB1B to 75% of the required volume of 0.9% NaCl. The resulting formulation was agitated for 20 to 25 minutes after which the pH of the solution was measured and adjusted, as necessary, to 6-6.5 with 0.01M NaOH. The required amount of HEC was added to the test item solution and the formulation was agitated for 20 to 25 minutes. The formulation was then QS'ed to the final volume with NaCl and agitated for an additional 2 to 3 hours at room temperature. The final gel formulation was filtered with a 0.2 μm cellulose filter.
# Retinal detachments were created by infusing a dilute solution (0.25%) of Healon into the subretinal space of the right eyes in 30 New Zealand White rabbits. Fifty (50) μL of GB1A (0.05 mg/mL), GB1B (1.5 mg/mL), or vehicle (HEC) formulations were injected intravitreally immediately after the detachment surgery in the right eyes of all animals (n=5 for each vehicle/test item at each time-point). The left eyes served as naïve controls. Euthanasia was performed by administering “Euthasol” IV via an ear vein, on animals of Groups 1 to 3, 3 days after retinal detachment (n=15) to examine the effects on proliferation, and on animals of Groups 4 to 6, 7 days after retinal detachment (n=15) to examine the effects on scaring.
# Following euthanasia, the retinas were fixed in 4% paraformaldehyde for 24 hours. Three retinal regions approximately 3 mm square were sampled from within each detached retina as well as from control retinas. The retinas were embedded in agarose and vibratomed at 100 microns in thickness. Sections were immunolabeled with antibodies to intermediate filament proteins (vimentin) and proliferating cells (Ki67). A marker for immune cells (Isolectin B4) and a nuclear stain (DAPI) was also used. All 4 probes were added to the same sections (i.e. quadruple labeling).
# The sections were imaged using an Olympus FV1000 confocal microscope. Digital images were acquired and used to determine 1) the number and size of subretinal glial scars 2) the number of dividing cells and their cell type e.g. of immune or glial origin 3) whether microglia are “activated” and 4) if macrophages are present. Animals were weighed pre-dose and at euthanasia. All animals gained a small amount of weight as was expected.
# Following euthanasia, the eyes were enucleated, the cornea and lens removed and the eyecups fixed in 4% paraformaldehyde in PBS for 24 hours. Three retinal regions approximately 3 mm^2 were dissected from within each detached retina and embedded in agarose for sectioning as described above. Following immunolabeling, the sections were mounted on glass slides and cover-slipped. Digital images were captured from along the length of each section collected from each of the 3 retinal regions using a FV1000 confocal microscope. Quantitation of scar length and number, as well as the number of dividing cells, was performed using the digital images viewed in “BioImage” (software available as a free download from UCSB's dept. of engineering). In addition, the presence of immune cells as described in the Experimental Design was noted and tabulated for each animal.
# galectin-1, sequence (P09382 whole entry): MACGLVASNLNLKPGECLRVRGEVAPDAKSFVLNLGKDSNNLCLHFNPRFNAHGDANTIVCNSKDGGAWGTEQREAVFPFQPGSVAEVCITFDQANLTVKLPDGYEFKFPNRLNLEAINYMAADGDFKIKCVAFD
smiles,measurement,setting,value
O=C[C@H](O)[C@@H](O)[C@@H](O)[C@H](O)CO [D-galactose],affinity relative to lactose,galectins,50-100 times lower
"OCC1O[C@@H](SC2O[C@H](CO)C(O)C(n3cc(N4CCOCC4)nn3)[C@H]2O)C(O)C(n2cc(-c3cc(F)c(F)c(F)c3)nn2)[C@H]1O (stereo partly drawn) [Example 1, 3,3′-Dideoxy-3-[4-(morpholin-4-yl)-1H-1,2,3-triazol-1-yl]-3′-[4-(3,4,5-trifluorophenyl)-1H-1,2,3-triazol-1-yl]-1,1′-sulfanediyl-di-β-D-galactopyranoside]",Kd,galectin-1,110 nM
"OCC1O[C@@H](SC2O[C@H](CO)C(O)C(n3cc(N4CCOCC4)nn3)[C@H]2O)C(O)[C@@H](n2cc(-c3cc(F)c(F)c(F)c3)nn2)[C@H]1O (stereo partly drawn) [Example 1, 3,3′-Dideoxy-3-[4-(morpholin-4-yl)-1H-1,2,3-triazol-1-yl]-3′-[4-(3,4,5-trifluorophenyl)-1H-1,2,3-triazol-1-yl]-1,1′-sulfanediyl-di-β-D-galactopyranoside]",solubility,Solubility,> 10000 µg/mL
"CN1CCN(c2cn(C3C(O)[C@@H](CO)OC(S[C@@H]4OC(CO)[C@H](O)C(n5cc(-c6cc(F)c(F)c(F)c6)nn5)C4O)[C@@H]3O)nn2)CC1 (stereo partly drawn) [Example 2, 3,3′-Dideoxy-3-[4-(4-methylpiperazin-1-yl)-1H-1,2,3-triazol-1-yl]-3′-[4-(3,4,5-trifluorophenyl)-1H-1,2,3-triazol-1-yl]-1,1′-sulfanediyl-di-β-D-galactopyranoside]",Kd,galectin-1,35 nM
"CN1CCN(c2cn(C3C(O)[C@@H](CO)OC(S[C@@H]4OC(CO)[C@H](O)[C@H](n5cc(-c6cc(F)c(F)c(F)c6)nn5)C4O)[C@@H]3O)nn2)CC1 (stereo partly drawn) [Example 2, 3,3′-Dideoxy-3-[4-(4-methylpiperazin-1-yl)-1H-1,2,3-triazol-1-yl]-3′-[4-(3,4,5-trifluorophenyl)-1H-1,2,3-triazol-1-yl]-1,1′-sulfanediyl-di-β-D-galactopyranoside]",solubility,Solubility,> 10000 µg/mL
"OCC1O[C@@H](SC2O[C@H](CO)C(O)C(n3cc(C4CCNCC4)nn3)[C@H]2O)C(O)[C@@H](n2cc(-c3cc(F)c(F)c(F)c3)nn2)[C@H]1O (stereo partly drawn) [Example 3, 3,3′-Dideoxy-3-[4-(piperidin-4-yl)-1H-1,2,3-triazol-1-yl]-3′-[4-(3,4,5-trifluorophenyl)-1H-1,2,3-triazol-1-yl]-1,1′-sulfanediyl-di-β-D-galactopyranoside]",Kd,galectin-3,5 nM
same,Kd,galectin-1,29 nM
same,solubility,Solubility,> 10000 µg/mL
"OCC1O[C@@H](SC2O[C@H](CO)C(O)C(n3cc(C4CCOCC4)nn3)[C@H]2O)C(O)C(n2cc(-c3cc(F)c(F)c(F)c3)nn2)[C@H]1O (stereo partly drawn) [Example 4, 3,3′-Dideoxy-3-[4-(tetrahydropyran-4-yl)-1H-1,2,3-triazol-1-yl]-3′-[4-(3,4,5-trifluorophenyl)-1H-1,2,3-triazol-1-yl]-1,1′-sulfanediyl-di-β-D-galactopyranoside]",Kd,galectin-1,58 nM
"OCC1O[C@@H](SC2O[C@H](CO)C(O)C(n3cc(C4CCOCC4)nn3)[C@H]2O)C(O)[C@@H](n2cc(-c3cc(F)c(F)c(F)c3)nn2)[C@H]1O (stereo partly drawn) [Example 4, 3,3′-Dideoxy-3-[4-(tetrahydropyran-4-yl)-1H-1,2,3-triazol-1-yl]-3′-[4-(3,4,5-trifluorophenyl)-1H-1,2,3-triazol-1-yl]-1,1′-sulfanediyl-di-β-D-galactopyranoside]",solubility,Solubility,8100 µg/mL
"CC(C)c1cn(C2C(O)[C@@H](CO)OC(S[C@@H]3OC(CO)[C@H](O)C(n4cc(-c5cc(F)c(F)c(F)c5)nn4)C3O)[C@@H]2O)nn1 (stereo partly drawn) [Example 5, 3,3′-Dideoxy-3-[4-(propan-2-yl)-1H-1,2,3-triazol-1-yl]-3′-[4-(3,4,5-trifluorophenyl)-1H-1,2,3-triazol-1-yl]-1,1′-sulfanediyl-di-β-D-galactopyranoside]",Kd,galectin-1,70 nM
"CC(C)c1cn(C2C(O)[C@@H](CO)OC(S[C@@H]3OC(CO)[C@H](O)[C@H](n4cc(-c5cc(F)c(F)c(F)c5)nn4)C3O)[C@@H]2O)nn1 (stereo partly drawn) [Example 5, 3,3′-Dideoxy-3-[4-(propan-2-yl)-1H-1,2,3-triazol-1-yl]-3′-[4-(3,4,5-trifluorophenyl)-1H-1,2,3-triazol-1-yl]-1,1′-sulfanediyl-di-β-D-galactopyranoside]",solubility,Solubility,> 10000 µg/mL
"OC[C@H]1O[C@@H](S[C@@H]2O[C@H](CO)[C@H](O)[C@H](n3cc(-c4cccc(F)c4)nn3)[C@H]2O)[C@H](O)[C@@H](n2cc(-c3cccc(F)c3)nn2)[C@H]1O [GB1A, 3,3′-Dideoxy-3,3′-bis-[4-(3-fluoro-phenyl)-1H-1,2,3-triazol-1-yl]-1,1′-sulfanediyl-di-β-D-galactopyranoside]",reduction of size and number of subretinal glial scars and number of dividing cells,[1],highly effective
same,number of subretinal scars per mm of retina,[1],0.45 scars per mm of retina
same,scar length per mm of retina,[1],25.83 microns per mm of retina
same,Ki67 labeled Muller cells per mm of retina,[1],3.01 cells per mm of retina
"OC[C@H]1O[C@@H](S[C@@H]2O[C@H](CO)[C@H](O)[C@H](n3cc(-c4ccc(F)cn4)nn3)[C@H]2O)[C@H](O)[C@@H](n2cc(-c3ccc(F)cn3)nn2)[C@H]1O [GB1B, 3,3′-Dideoxy-3,3′-bis-[4-(5-fluoro-2-pyridinyl)-1H-1,2,3-triazol-1-yl]-1,1′-sulfanediyl-di-β-D-galactopyranoside]",reduction of size and number of subretinal glial scars and number of dividing cells,[1],highly effective
same,number of subretinal scars per mm of retina,[1],0.43 scars per mm of retina
same,scar length per mm of retina,[1],28.8 microns per mm of retina
same,Ki67 labeled Muller cells per mm of retina,[1],2.73 cells per mm of retina
OC[C@H]1O[C@@H](O[C@H]2[C@H](O)[C@@H](O)C(O)O[C@@H]2CO)[C@H](O)[C@@H](O)[C@H]1O (stereo partly drawn) [lactose],Kd,galectins,500 to 1000 µM
